In PubChem BioAssay (NCI):
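Five concentrations, 48 hours, 96-well plates. The concentration for full growth arrest is given as TGI.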

Key:
Experiment in all cases: growth of human tumour cells (NCI), 48 h
786-0 renal = tested on: 786-0 renal
A498 renal = tested on: A498 renal
A549 NSCLC = tested on: A549 NSCLC
ACHN renal = tested on: ACHN renal
BT-549 breast = tested on: BT-549 breast
CAKI-1 renal = tested on: CAKI-1 renal
CCRF-CEM leukemia = tested on: CCRF-CEM leukemia
COLO 205 colon = tested on: COLO 205 colon
DU-145 prostate = tested on: DU-145 prostate
EKVX NSCLC = tested on: EKVX NSCLC
HCC-2998 colon = tested on: HCC-2998 colon
HCT-116 colon = tested on: HCT-116 colon
HCT-15 colon = tested on: HCT-15 colon
HL-60(TB) leukemia = tested on: HL-60(TB) leukemia
HOP-62 NSCLC = tested on: HOP-62 NSCLC
HOP-92 NSCLC = tested on: HOP-92 NSCLC
HS 578T breast = tested on: HS 578T breast
HT29 colon = tested on: HT29 colon
IGROV1 ovarian = tested on: IGROV1 ovarian
K-562 leukemia = tested on: K-562 leukemia
KM12 colon = tested on: KM12 colon
LOX IMVI melanoma = tested on: LOX IMVI melanoma
M14 melanoma = tested on: M14 melanoma
MALME-3M melanoma = tested on: MALME-3M melanoma
MCF7 breast = tested on: MCF7 breast
MDA-MB-231 breast = tested on: MDA-MB-231 breast
MDA-MB-435 = tested on: MDA-MB-435
MDA-N = tested on: MDA-N
MOLT-4 leukemia = tested on: MOLT-4 leukemia
NCI-H23 lung = tested on: NCI-H23 lung
NCI-H460 lung = tested on: NCI-H460 lung
NCI-H522 lung = tested on: NCI-H522 lung
NCI/ADR-RES ovarian = tested on: NCI/ADR-RES ovarian
OVCAR-3 ovarian = tested on: OVCAR-3 ovarian
OVCAR-4 ovarian = tested on: OVCAR-4 ovarian
OVCAR-5 ovarian = tested on: OVCAR-5 ovarian
OVCAR-8 ovarian = tested on: OVCAR-8 ovarian
PC-3 prostate = tested on: PC-3 prostate
RPMI-8226 leukemia = tested on: RPMI-8226 leukemia
RXF 393 renal = tested on: RXF 393 renal
SF-268 CNS = tested on: SF-268 CNS
SF-295 CNS = tested on: SF-295 CNS
SK-MEL-2 melanoma = tested on: SK-MEL-2 melanoma
SK-MEL-28 melanoma = tested on: SK-MEL-28 melanoma
SK-MEL-5 melanoma = tested on: SK-MEL-5 melanoma
SK-OV-3 ovarian = tested on: SK-OV-3 ovarian
SN12C renal = tested on: SN12C renal
SNB-19 CNS = tested on: SNB-19 CNS
SNB-75 CNS = tested on: SNB-75 CNS
SR leukemia = tested on: SR leukemia
SW-620 colon = tested on: SW-620 colon
T-47D breast = tested on: T-47D breast
TK-10 renal = tested on: TK-10 renal
U251 CNS = tested on: U251 CNS
UACC-257 melanoma = tested on: UACC-257 melanoma
UACC-62 melanoma = tested on: UACC-62 melanoma
UO-31 renal = tested on: UO-31 renal
NCI-H226 lung = tested on: NCI-H226 lung
SF-539 CNS = tested on: SF-539 CNS

Measured: TGI

[O-]c1c[n+](CC[n+]2cc([O-])on2)no1
not listed: NCI-H226 lung | SF-539 CNS
> 100 µM: all other assays above

Cc1cc(N)ccc1C=O
not listed: SF-295 CNS
> 100 µM: all other assays above

Cc1cc(-c2nc3cc(O)ccc3s2)ccc1N
67.3 µM: OVCAR-3 ovarian
61.7 µM: A498 renal
60.1 µM: EKVX NSCLC
73.4 µM: SF-295 CNS
44.2 µM: UACC-62 melanoma
77.1 µM: SK-OV-3 ovarian
49.8 µM: COLO 205 colon
48 µM: SK-MEL-5 melanoma
49.3 µM: SF-539 CNS
75.5 µM: OVCAR-5 ovarian | SK-MEL-28 melanoma
95.5 µM: SNB-75 CNS
66.6 µM: KM12 colon
52.4 µM: M14 melanoma
78.8 µM: UO-31 renal
50.7 µM: HT29 colon
72.3 µM: T-47D breast
96.8 µM: CCRF-CEM leukemia
42.7 µM: HCT-116 colon
74.4 µM: SK-MEL-2 melanoma
74.7 µM: ACHN renal
74.2 µM: SN12C renal
not listed: RPMI-8226 leukemia
> 100 µM: all other assays above
